Broadly, the IC50 is the midpoint of a concentration-inhibition curve. By Ki is commonly meant a measure of affinity in units of concentration, obtained from inhibition or displacement.

Where two headings read alike, the source gives them in different places.

These results are taken from US6617350B2, “Inhibitors of aspartyl protease” (priority 1999, dated 2003).

One assay concerns HIV-1 (strain IIIB). Put plainly: microbe, parasite or virus in culture. The note with it: read-out: IC50. The format is cell-based.
The target of the next assay is HIV-1 protease (Human immunodeficiency virus type 1 group M subtype B, UniProt P04585). Put plainly: biochemical.
Where [1] appears, read: Human immunodeficiency virus 1, IIIB, MT4, Table 12, anti-viral potency in MT-4 cells.
Setting [2] is: Table 12, HIV-1 protease, read-out: Ki.

As for `CC(C)(CCC#N)CN(C[C@@H](O)[C@H](Cc1ccccc1)NC(=O)OC(C)(C)C)S(=O)(=O)c1cccc(N)c1` [Compound 5, tert-ButylN-((1S,2R)-3-[(3-aminophenyl)sulfonyl](4-cyano-2,2-dimethylbutyl)amino-1-benzyl-2-hydroxypropyl)carbamate], in the assay with HIV-1 (strain IIIB) (setting [1]), the IC50 is over 1000 nM. In addition, at HIV-1 protease (setting [2]), the Ki was under 1 nM.

As for `CCOC(=O)CNC(=O)NCCCC(C)(C)CN(CC(O)C(Cc1ccccc1)NC(=O)OC1COC2OCCC12)S(=O)(=O)c1ccc(OC)cc1` (mixture of isomers) [Compound 216, Ethyl (3S,4R)-1-[(3R,3aS,6aR)hexahydrofuro[2,3-b]furan-3-yloxy]-3-benzyl-4-hydroxy-6-[(4-methoxyphenyl)sulfonyl]-8,8-dimethyl-1,13-dioxo-2,6,12,14-tetraazahexadecan-16-oate and Ethyl (3S,4R)-1-[(3S,3aR,6aS)hexahydrofuro[2,3-b]furan-3-yloxy]-3-benzyl-4-hydroxy-6-[(4-methoxyphenyl)sulfonyl]-8,8-dimethyl-1,13-dioxo-2,6,12,14-tetraazahexadecan-16-oate], the IC50 in the assay on HIV-1 (strain IIIB) (setting [1]) is at most 100 nM. The Ki on HIV-1 protease (setting [2]) was under 1 nM.

For `COc1ccc(S(=O)(=O)N(CC(O)C(Cc2ccccc2)NC(=O)OC2COC3OCCC23)CC(C)(C)CCCNC(=O)OC(C)C)cc1` [Compound 243, (3R,3aS,6aR)hexahydrofuro[2,3-b]furan-3-yl N-((1S,2R)-1-benzyl-2-hydroxy-3-5-[(isopropoxycarbonyl)amino]-2,2-dimethylpentyl[(4-methoxyphenyl)sulfonyl]aminopropyl)carbamate and (3S,3aR,6aS)hexahydrofuro[2,3-b]furan-3-yl N-((1S,2R)-1-benzyl-2-hydroxy-3-5-[(isopropoxycarbonyl)amino]-2,2-dimethylpentyl[(4-methoxyphenyl)sulfonyl]aminopropyl)carbamate], the half-inhibitory concentration (IC50) in the assay with HIV-1 (strain IIIB) (setting [1]) was at most 100 nM. Also, the Ki on HIV-1 protease is under 1 nM.

Take `CCOC(=O)NCCCC(C)(C)CN(CC(O)C(Cc1ccccc1)NC(=O)OC1COC2OCCC12)S(=O)(=O)c1ccc(OC)cc1` [Compound 230, (3R,3aS,6aR)hexahydrofuro[2,3-b]furan-3-yl N-((1S,2R)-1-benzyl-3-5-[(ethoxycarbonyl)amino]-2,2-dimethylpentyl[(4-methoxyphenyl)sulfonyl]amino-2-hydroxypropyl)carbamate and (3S,3aR,6aS)hexahydrofuro[2,3-b]furan-3-yl N-((1S,2R)-1-benzyl-3-5-[(ethoxycarbonyl)amino]-2,2-dimethylpentyl[(4-methoxyphenyl)sulfonyl]amino-2-hydroxypropyl)carbamate]: in the assay with HIV-1 (strain IIIB) (setting [1]), the half-inhibitory concentration (IC50) is at most 100 nM. The Ki at HIV-1 protease (setting [2]) is under 1 nM.

As for `CC(=O)Nc1cc(S(=O)(=O)N(C[C@@H](O)[C@H](Cc2ccccc2)NC(=O)O[C@H]2CO[C@H]3OCC[C@H]32)CC(C)(C)CCC#N)ccc1F` [Compound 30, {(1S,2R)-3-[(3-Acetylamino-4-fluoro-benzenesulfonyl)-(4-cyano-2,2-dimethyl-butyl)-amino]-1-benzyl-2-hydroxy-propyl}-carbamic acid (3R,3aS,6aR)hexahydro-furo[2,3-b]furan-3-yl ester], the half-inhibitory concentration (IC50) with HIV-1 (strain IIIB) (setting [1]) was at most 100 nM. Besides, on HIV-1 protease (setting [2]), the Ki is under 1 nM.

Consider “tert-Butyl N-(1S,2R)-1-benzyl-3-(4-cyanobutyl)[(4-methoxyphenyl)sulfonyl]amino-2-hydroxypropyl)carbamate [Compound 4]”, for which the half-inhibitory concentration (IC50) with HIV-1 (strain IIIB) (Table 12, anti-viral potency in MT-4 cells) lay within 100 to 500 nM. Further, on HIV-1 protease (setting [2]), the Ki is 1 to 10 nM.

Take `CNc1cccc(S(=O)(=O)N(C[C@@H](O)[C@H](Cc2ccccc2)NC(=O)O[C@H]2CO[C@H]3OCC[C@H]32)CC(C)(C)CCCNC(=O)N(C)C)c1` [Compound 267, (3R,3aS,6aR)hexahydrofuro[2,3-b]furan-3-yl N-[(1S,2R)-1-benzyl-3-((5-[(dimethylamino)carbonyl]amino-2,2-dimethylpentyl)[3-(methylamino)phenyl]sulfonylamino)-2-hydroxypropyl]carbamate]: the IC50 with HIV-1 (strain IIIB) (setting [1]) is at most 100 nM. In addition, on HIV-1 protease (setting [2]), the inhibition constant (Ki) is under 1 nM.

`CO/N=C(\C)CCC(C)(C)CN(CC(O)[C@H](Cc1ccccc1)NC(=O)OC1COC2OCCC12)S(=O)(=O)c1ccc2c(c1)OCO2` (stereo partly drawn) [Compound 261, (3R,3aS,6aR)-Hexahydrofuro[2,3-b]furan-3-yl-N-((1S,2R)-1-benzyl-3-(2,2-dimethyl-5-methoxyiminohexyl)[(3,4-methylenedioxyphenyl)sulfonyl]amino-2-hydroxypropyl)carbamate]: the concentration for half-maximal inhibition (IC50) in the assay with HIV-1 (strain IIIB) (setting [1]) was at most 100 nM. The inhibitory constant (Ki) at HIV-1 protease (setting [2]) is under 1 nM.

As for `CC(C)(CCC#N)CN(CC(O)C(Cc1ccccc1)NC(=O)OC1COC2OCCC12)S(=O)(=O)c1ccc(O)cc1` [Compound 35, {(1S,2R)-3-[(4-hydroxybenzenesulfonyl)-(4-cyano-2,2-dimethyl-butyl)-amino]-1-benzyl-2-hydroxy-propyl}-carbamic acid (2R,3aS,6aR)hexahydro-furo[2,3-b]furan-3-yl ester], the IC50 in the assay on HIV-1 (strain IIIB) (setting [1]) is at most 100 nM. The Ki at HIV-1 protease (setting [2]) is under 1 nM.

`CC(C)(CCCN)CN(CC(O)C(Cc1ccccc1)NC(=O)OC1COC2OCCC12)S(=O)(=O)c1ccc2c(c1)OCO2` [Compound 257, 3R,3aS,6aR)hexahydrofuro[2,3-b]furan-3-yl N-(1S,2R)-3-[(5-amino-2,2-dimethylpentyl)(1,3-benzodioxol-5-ylsulfonyl)amino]-1-benzyl-2-hydroxypropylcarbamate]: the IC50 with HIV-1 (strain IIIB) (setting [1]) was in the range of 100 to 500 nM. In addition, the inhibitory constant (Ki) on HIV-1 protease (setting [2]) was under 1 nM.

`COc1ccc(S(=O)(=O)N(CC(O)C(Cc2ccccc2)NC(=O)OC2COC3OCCC23)CC(C)(C)CCCNC(=O)N2CCOCC2)cc1` [Compound 237, (3R,3aS,6aR)hexahydrofuro[2,3-b]furan-3-yl N-((1S,2R)-1-benzyl-3-2,2-dimethyl-5-[(morpholinocarbonyl)amino]pentyl[(4-methoxyphenyl)sulfonyl]amino-2-hydroxypropyl)carbamate and 3S,3aR,6aS)hexahydrofuro[2,3-b]furan-3-yl N-((1S,2R)-1-benzyl-3-2,2-dimethyl-5-[(morpholinocarbonyl)amino]pentyl[(4-methoxyphenyl)sulfonyl]amino-2-hydroxypropyl)carbamate]: the half-maximal inhibitory concentration (IC50) with HIV-1 (strain IIIB) (setting [1]) was at most 100 nM. In addition, the Ki on HIV-1 protease (setting [2]) is under 1 nM.

As for `COc1ccc(S(=O)(=O)N(CCC(C)=O)C[C@@H](O)[C@H](Cc2ccccc2)NC(=O)O[C@H]2CO[C@H]3OCC[C@H]32)cc1` [Compound 280, {(1S,2R)-3-[(4-methoxybenzenesulfonyl)-(3-butanonyl)-amino]-1-benzyl-2-hydroxy-propyl}-carbamic acid (3R,3aS,6aR)hexahydro-furo[2,3-b]furan-3-yl ester], the IC50 with HIV-1 (strain IIIB) (setting [1]) lay within 100 to 500 nM. Further, the Ki at HIV-1 protease (setting [2]) was under 1 nM.

With `CCC(CCC(C)=O)CN(CC(O)[C@H](Cc1ccccc1)NC(=O)OC1CCOC1)S(=O)(=O)c1ccc(OC)cc1` (stereo partly drawn) [Compound 206, (3S)-Tetrahydro-3-furanyl N-((1S,2R)-1-benzyl-3-(2-ethyl-5-oxohexyl)[(4-methoxyphenyl)sulfonyl]amino-2-hydroxypropyl)carbamate], the IC50 in the assay on HIV-1 (strain IIIB) (setting [1]) is at most 100 nM. Besides, at HIV-1 protease (setting [2]), the inhibition constant (Ki) was under 1 nM.

Take `CC(C)(CCCC#N)CN(CC(O)C(Cc1ccccc1)NC(=O)OC1COC2OCCC12)S(=O)(=O)c1ccc2c(c1)OCO2` (centres unmarked) [Compound 39]: the half-maximal inhibitory concentration (IC50) was at most 100 nM in the assay with HIV-1 (strain IIIB) (setting [1]) and 1 to 10 nM in the assay on HIV-1 (strain IIIB) (Human immunodeficiency virus 1, IIIB, MT4, Table 13, MT-4 cell based assay, class symbol). Also, the inhibition constant (Ki) on HIV-1 protease (setting [2]) was under 1 nM.

Consider `CC(C)(CCC#N)CN(C[C@@H](O)[C@H](Cc1ccccc1)NC(=O)OC1COCOC1)S(=O)(=O)c1ccc(O)cc1` [Compound 42, {(1S,2R)-1-Benzyl-3-[(4-cyano-2,2-dimethyl-butyl)-(4-hydroxybenzenesulfonyl)-amino]-2-hydroxy-propyl}-carbamic acid[1,3]dioxan-5-yl ester], for which the IC50 with HIV-1 (strain IIIB) (setting [1]) lay in the range of 100 to 500 nM. Further, the Ki at HIV-1 protease (setting [2]) was under 1 nM.

Turning to `CN(C)C(=O)NCCCC(C)(C)CN(CC(O)C(Cc1ccccc1)NC(=O)OC1COC2OCCC12)S(=O)(=O)c1ccc2c(c1)OCO2` [Compound 266, (3R,3aS,6aR)hexahydrofuro[2,3-b]furan-3-yl N-(1S,2R)-3-[(1,3-benzodioxol-5-ylsulfonyl)(5-[(dimethylamino)carbonyl]amino-2,2-dimethylpentyl)amino]-1-benzyl-2-hydroxypropylcarbamate], the IC50 with HIV-1 (strain IIIB) (setting [1]) was at most 100 nM. Besides, the Ki on HIV-1 protease (setting [2]) was under 1 nM.

For `CC(=O)CCC(C)(C)CN(CC(O)[C@H](Cc1ccccc1)NC(=O)OC1COC2OCCC12)S(=O)(=O)c1cccc(N(C)C)c1` (some centres unmarked) [Compound 254], in the assay with HIV-1 (strain IIIB) (setting [1]), the IC50 is at most 100 nM. For the same compound, the Ki at HIV-1 protease (setting [2]) is under 1 nM.

Consider `COc1ccc(S(=O)(=O)N(CCCCC#N)C[C@@H](O)[C@H](Cc2ccccc2)NC(=O)O[C@H]2CCOC2)cc1` [Compound 26, (3S)-Tetrahydro-3-furanyl N-((1S,2R)-1-benzyl-3-(4-cyanobutyl)[(4-methoxyphenyl)sulfonyl]amino-2-hydroxypropyl)carbamate], for which the concentration for half-maximal inhibition (IC50) with HIV-1 (strain IIIB) (setting [1]) lay in the range of 100 to 500 nM. Besides, the inhibition constant (Ki) at HIV-1 protease (setting [2]) was under 1 nM.

Take `CC(=O)CCC(C)(C)CN(CC(O)[C@H](Cc1ccccc1)NC(=O)OC1COC2OCCC12)S(=O)(=O)c1ccc2c(c1)OCO2` (stereo partly drawn) [Compound 240, (3R,3aS,6aR)-Hexahydrofuro[2,3-b]furan-3-yl N-((1S,2R)-1-benzyl-3-(2,2-dimethyl-5-oxohexyl)[(3,4-methylenedioxyphenyl)sulfonyl]amino-2-hydroxypropyl)carbamate]: in the assay on HIV-1 (strain IIIB) (setting [1]), the concentration for half-maximal inhibition (IC50) is at most 100 nM. Also, the Ki on HIV-1 protease (setting [2]) was under 1 nM.

For `COc1ccc(S(=O)(=O)N(CC(O)C(Cc2ccccc2)NC(=O)OC2COC3OCCC23)CC(C)(C)CCN(C)C)cc1` [Compound 238, (3R,3aS,6aR)hexahydrofuro[2,3-b]furan-3-yl N-((1S,2R)-1-benzyl-3-[4-(dimethylamino)-2,2-dimethylbutyl][(4-methoxyphenyl)sulfonyl]amino-2-hydroxypropyl)carbamate and (3S,3aR,6aS)hexahydrofuro[2,3-b]furan-3-yl N-((1S,2R)-1-benzyl-3-[4-(dimethylamino)-2,2-dimethylbutyl][(4-methoxyphenyl)sulfonyl]amino-2-hydroxypropyl)carbamate]], the IC50 with HIV-1 (strain IIIB) (setting [1]) is 100 to 500 nM. For the same compound, the inhibition constant (Ki) on HIV-1 protease (setting [2]) is under 1 nM.
